Data on two compounds can be found in patent publication US9642381B2, “Orally consumable formulations comprising certain sweet-tasting triterpenes and triterpene glycosides” (Symrise AG, priority 2011, dated 2017).

What all share (type): in vivo, human
The test system of assay [1] is group of experts. The assay can be described thus: Sensory evaluation of Balansin A and Balansin B by a group of experts. The note with it: 50 ppm in water and in a 5 wt % aqueous saccharose solution; Balansin A described in the aqueous solution. The text has this:
A group of experts tasted and sensorily evaluated the two isolated compounds Balansin A and Balansin B from Example 4, each at a concentration of 50 ppm in water and a 5 wt % aqueous saccharose solution.

The test system of assay [2] is group of at least five persons. The assay can be described thus: Intrinsic sweetness against a saccharose reference series (saccharose equivalents). The note with it: 50 ppm, against saccharose reference series in water. The text has this:
To determine the sweet impression of the extracts according to the invention or of the compounds according to the invention of the formula (I) compared to an aqueous saccharose solution, an aqueous solution of one or a plurality of compounds of the formula (I) is produced in the same concentration as is present in the orally consumable formulation under study. This aqueous solution is then compared and rated for taste by a group of at least five persons against a reference series of different saccharose concentrations in water. In this way, the saccharose equivalence is determined (indicated in saccharose equivalents), in other words, the concentration of the saccharose solution, whose sweet impression is equivalent to the sweet impression of the concentration of compounds of the formula (I). Preferred concentrations of the saccharose reference solution are 0; 0.25; 0.5; 0.75; 1; 1.5; 2; 3; 4 and 5 wt % saccharose in water. If necessary, other concentrations, particularly higher concentrations, can also be used for the reference series. The ascertained saccharose equivalent is obtained from the mean value of the individual rating of the individual panelists. The panelists are preferably persons who have experience in the field of tasting, are of different age and gender and come from different backgrounds. […]

In assay [3] the test system is group of experts. The assay can be described thus: Reinforcing the sweet impression of a 5 wt % saccharose solution. The note with it: for % Reinforcement of the sweet impression: versus saccharose solution alone; for Sweet impression (1-10) with: rating 1 [not sweet] to 10 [extremely sweet]. The protocol: In order to quantify the reinforcement of the sweet impression, the sweetness of a 5 wt %-containing saccharose solution and of a sample which contained 5 wt % saccharose and a quantity of the test substance or test extract was determined by a group of experts (rating 1 [not sweet] to 10 [extremely sweet]). The analysis was performed as a calculation of the […] (in %) of the sweet impression from the average values of the assessments of the saccharose solution and of the solution containing saccharose and Compound 2 (p was determined as a significance measure according to the paired, two-tailed Student's statistical test).

Setting [4] is: 50 ppm in 5 wt % saccharose solution.
Where [5] appears, read: 25 ppm in 5 wt % saccharose solution.

Regarding `CC(C)(O)C(O)C/C=C(\CO)[C@H]1CC[C@]2(C)[C@@H]1CC[C@@H]1[C@@]3(C)CC[C@H](O[C@@H]4O[C@H](COC5OC(CO)[C@@H](O)[C@H](O)[C@H]5O)[C@@H](O)[C@H](O)[C@H]4OC4O[C@H](CO)[C@@H](O)[C@H](O)[C@H]4O)C(C)(C)[C@@H]3CC[C@]12C` (some centres unmarked) [Balansin B], the “Sensory evaluation (taste description)” value in assay [1] was “slightly bitter, slightly sweetener-type and weakly ethanolic, but otherwise displayed no noticeable intrinsic taste”. Also, the “Intrinsic sweetness, equivalent to the sweetness of saccharose” value in assay [2] was 1 % saccharose. For the same compound, in assay [3] (setting [4]), the “% Reinforcement of the sweet impression” value is on record as 31% (p < 0.0005) and the “Sweet impression (1-10) with” value amounted to 6.7 ± 1.1.
Take `CC(C)(O)C(O)C/C=C(\CO)[C@H]1CC[C@]2(C)[C@@H]1CC[C@@H]1[C@@]3(C)CC[C@H](O[C@@H]4O[C@H](CO)[C@@H](O)[C@H](O)[C@H]4OC4O[C@H](CO)[C@@H](O)[C@H](O)[C@H]4O)C(C)(C)[C@@H]3CC[C@]12C` (some centres unmarked) [Balansin A]: in assay [1], the “Sensory evaluation (taste description)” value was “intensely sweet, also as slightly bitter and displayed a sweetener-type note”. In addition, in assay [2], the “Intrinsic sweetness, equivalent to the sweetness of saccharose” value is reported as 2 % saccharose. For the same compound, in assay [3] (setting [5]), the “% Reinforcement of the sweet impression” value is 48% (p < 0.00005) and the “Sweet impression (1-10) with” value came to 7.2 ± 1.4.
